Numbered stars: 1 amine (or outer) side, 2 acyl side, 3 side chain; on linkers, the order of the positions; unused ones are H or OH. Square brackets hold non-standard residues; d marks the D form. Peptide text beside a SMILES is read from it. * marks the point of attachment. X1 = O=C1NC2CSC(CCCCC(=O)*)C2N1; X2 = CC(O)CC(N[*:1])C(=O)[*:2]; Abu = CC[CH](N)C(=O)O
Key:
[1] = Blood-brain barrier penetration experiment: biotin in cerebrospinal fluid; assay type: in vivo, mouse; conditions: mice, biotin detected in cerebrospinal fluid
Description: The biotin-labeled novel EPO-derived peptide was injected intraperitoneally. 5-15 μl of mouse cerebrospinal fluid was taken under general anesthesia 1 h after administration. The biotin assay kit was used to detect whether the biotin-labeled novel EPO-derived peptide entered the cerebrospinal fluid across the blood-brain barrier.
1. Anesthetizing the mouse with 4% chloral hydrate;
2. Wiping the nape of the neck with wet gauze, and cutting off the dorsal set to expose the skin; making a sagittal incision in the skin below the occipital bone, and separating the skin from both sides to expand the visual field;
3. Letting the mouse prone, placing the body at an angle of 135° to the head and fixing the head on the stereotactic instrument; bluntly separating the subcutaneous tissue and muscle along the midline under the stereo microscope; at this angle, the dura mater and spinal cord can be clearly seen in the incision below the occipital bone (The main features are a clear white appearance, a cyclical pulsation of the spinal cord blood vessels and an adjacent cerebrospinal fluid area);
4. Setting the heat value as 300 and the pressure value as 330 in the needle puller, pulling the capillary glass tube into a pointed capillary tube, and trimming the tip of the pointed capillary tube with scissors to make the blunt tip have a diameter of 0.5 mm;
5. […]

[2] = system: fetal rat cortical neurons; experiment: Oxygen-glucose deprivation (OGD)-induced damage to neurons, MTT cell survival and LDH release; assay type: cell-based; conditions: 3 h hypoxia (1% oxygen), then 4 h with EPO 5, 100 μg/ml or T3 5, 50, 100 μg/ml
Description: According to the methods from literatures, the fetal rat cortical neurons were cultured in the serum-free culture medium of Neurobasal® Medium (purchased from the market). After incubation in a 5% CO2 incubator for 7-14 days, the neurons were specifically labeled: microtubule-associated protein-2 (MAP-2) was stained and identified, and the nuclei were labeled with the fluorescent dye of 4, 6-diamidino-2-phenylindole (DAPI).
The fetal rat cortical neurons of primary culture were cultured in a sugar-free DMED culture medium. After being placed in the hypoxic incubator to damage neurons for 3 h, the culture medium were replaced with serum-free culture medium. EPO, the novel EPO-derived peptide (T3) and the culture medium were added to different groups respectively, and the groups were cultured in a 5% CO2 normal oxygen incubator for 4 h. Then the LDH release rate and MTT cell survival rate of each group were measured.
1. Selecting well-grown neurons cultured for 7-14 days, aspirating the old culture medium of neurons, washing 3 times with PBS buffer, and then adding sugar-free DMEM:
2. Placing the culture plates in an anoxic incubator at 37° C., and setting the oxygen concentration therein as 1%.
3. Removing the culture plates after 3 h of hypoxia, aspirating the sugar-free medium, replacing it with the original serum-free maintenance medium, adding EPO (5 μg/ml, 100 μg/ml), the EPO-derived peptide of the present invention (5 μg/ml, 50 μg/ml, 100 μg/ml), and the culture medium respectively, and placing in an 5% CO2 incubator with 95% air at 37° C. for 4 h.
4. After 4 h, measuring the cell survival rate (MTT kit, Beyotime Biotechnology Co., Ltd.) and LDH lactic dehydrogenase release rate (LDH kit, Promega Corporation) of the cells in each group.

red blood cells = experiment: Hematopoietic experiment: red blood cell counts after daily intraperitoneal injection; assay type: in vivo, C57/BL6 mice; conditions: for RBC generation (erythrocyte counts): tail vein blood; for red blood cell counts compared with the other groups (Saline, ACN+Milliq): as the number of administrations increases
Description: 18-22 g of male C57/BL6 mice (purchased from Shanghai SIPPR-BK Laboratory Animal Co., Ltd., 50 mice in total and 10 mice for each group) were used. The five groups were injected intraperitoneally with EPO (50 μg/kg), EPO-derived peptide of the present invention (50 μg/kg), EPO-derived peptide of the present invention (250 μg/kg), physiological saline (0.1 m/mouse), and solvent (ACN+Milliq, 0.1 m/mouse) once a day, respectively. On the 3th, 7th, and 13th days, the blood samples were collected from the tail vein and measured by a ProCyte Dx automatic blood cell analyzer to obtain the numbers of red blood cells thereof.

[3] = system: mouse model of transient middle cerebral artery occlusion; experiment: Mouse model of transient middle cerebral artery occlusion: neurobehavioral scores, cerebral infarction volume; assay type: in vivo, ICR mice; conditions: for cerebral infarction volume versus control group / neurobehavioral scores versus control group: EPO 50 μg/kg, T3 500 μg/kg at reperfusion; for Neurobehavioral scores / Cerebral infarction volumes: third day after surgery; for Neurobehavioral scores: 60 min ischemia then reperfusion; for Cerebral infarction volumes: cresyl violet sections
Description: ICR mice (male, 25-30 g, 18 mice, purchased from Shanghai Slac Laboratory Animal Co., Ltd.) were divided into control group (ACN+Millq, 0.2 ml/mouse), EPO group (50 μg/kg), novel EPO-derived peptide group (T3, 500 μg/kg), 6 mice/group. Mice in each group were operated with suture-occluded method in mice to establish middle cerebral artery occlusion model, the mice were anesthetized by intraperitoneal injection of ketamine hydrochloride and fixed on the operating table. After 60 min of ischemia, the sutures were removed to reperfuse, and the solvents (ACN+Milliq), EPO, and T3 were administered separately. Neurobehavioral scores were measured on the third day after surgery, and then the mice were sacrificed to reperfuse and the brains were harvested to make sections stained with cresyl violet. The results were shown in FIG. 7A, FIG. 7B and FIG. 7C.
1. Disinfecting the neck, making an incision at the center of the neck, exposing the left common carotid artery with a microsurgical forceps under a stereo microscope, separating the internal carotid artery, external carotid artery and pterygopalatine artery, ligating the common carotid artery and internal carotid artery; making two knots on the external carotid artery with two filaments, wherein one at the distal part of the external carotid artery is a dead knot, and one at the proximal part of the external carotid artery is a slipknot;
2. Making a small incision on the external carotid artery with venus scissors, having about half the size of the blood vessel;
3. Cutting the external carotid artery, and carefully reversely inserting the suture from the external carotid artery into the bifurcation of the external carotid artery and internal carotid artery, then loosening the knot on the internal carotid artery, inserting the suture into the internal carotid artery until it encounters a slight resistance, that is, the origin of the middle cerebral artery, and putting the mouse back into the cage.
4. Anesthetizing and fixing again after 60 min of cerebral ischemia, and re-exposing the common carotid artery, internal carotid artery and suture parts under a stereo microscope;
5. Loosening the filament ligated to the proximal part of the external carotid artery for fixing the suture with the microsurgical forceps, slowly withdrawing the suture, and ligating the stump of the external carotid artery, loosening the filament ligated to the common carotid artery to achieve reperfusion;
6. Suturing the incision of the neck, disinfecting the area, and putting the mouse back in the cage for observation.

[4] = system: pilocarpine-induced seizures; experiment: Pilocarpine-induced epilepsy model: seizure latency; assay type: in vivo, C57/BL6 mice; conditions: for seizure latency / seizure latency versus saline and solvent groups: EPO 50 μg/kg; for seizure latency: T3 500 μg/kg i.p. 1 day, 4 h, 2 h before pilocarpine 350 mg/kg; for seizure latency versus saline and solvent groups: T3 500 μg/kg, difference statistically significant
Description: C57/BL6 mice (male, 20-25 g, 24 mice, purchased from Shanghai JieSiJie Laboratory Animal Co., Ltd) were divided into physiological saline group (Saline, 0.2 ml/mouse), solvent group (ACN+Milliq, 0.2 ml/mouse), EPO group (50 μg/kg), novel EPO-derived peptide group (T3, 500 μg/kg), 6 mice each group. The drugs were administered 1 day, 4 h, and 2 h before pilocarpine-induced epilepsy, and the seizure latency and severity of seizures were recorded.
1. Intraperitoneally administering the mice 1 day, 4 h, 2 h prior to the injection of pilocarpine;
2. Intraperitoneally injecting scopolamine (1 mg/kg) 30 min in advance to reduce the peripheral cholinergic response induced by pilocarpine;
3. Intraperitoneally injecting pilocarpine (350 mg/kg), recording the time of administration, time of onset, severity of seizure;
Behavioral grading of epilepsy continuing status using the Racine scale:
Grade I: staring, mouth and facial movements;
Grade II: nodding, single jerks;
Grade III: unilateral/bilateral forelimb clonus
Grade V: loss of posture, jumping repeatedly, falling, tonic clonic seizure.

[5] = system: fetal rat cortical neurons; experiment: NMDA-induced damage to neurons, MTT cell survival and LDH release; assay type: cell-based; conditions: NMDA 250 μmol/L, 60 min; EPO 5 μg/ml, T3 100 μg/ml
Description: Based on the above results, the primary cortical neurons were administered with 250 μmol/L NMDA.
1. Selecting well-grown neurons cultured for 7-14 days, and adding EPO (5 μg/ml), the EPO-derived peptide of the present invention (100 μg/ml) respectively;
2. Adding NMDA to achieve a final concentration of 250 μmol/L, and culturing in an incubator at 37° C. for 60 min;
3. Discarding the culture medium, and measuring the cell survival rate (MTT kit, Beyotime Biotechnology Co., Ltd.) and LDH lactic dehydrogenase release rate (LDH kit, Promega Corporation) of the cells in each group.

[6] = 50 ug/kg i.p. once a day, 3th day
[7] = 50 ug/kg i.p. once a day, 7th day
[8] = 50 ug/kg i.p. once a day, 13th day

Row | Compound | LDH release rate versus control group [2] | cell survival rate (MTT) versus control group [2] | RBC generation (erythrocyte counts) (red blood cells; [6]) [M/μL] | RBC generation (erythrocyte counts) (red blood cells; [7]) [M/μL] | RBC generation (erythrocyte counts) (red blood cells; [8]) [M/μL] | red blood cell counts compared with the other groups (Saline, ACN+Milliq) (red blood cells) | cerebral infarction volume versus control group [3] | neurobehavioral scores versus control group [3] | seizure latency [4] [min] | seizure latency versus saline and solvent groups [4] | LDH release rate versus control group [5] | cell survival rate (MTT) versus control group [5] | also measured
1 | CCC(NC(=O)C(CC(C)C)NC(=O)CNC(=O)C(CO)NC(=O)C(NC(=O)C(C)NC(=O)C(CC(=O)O)NC(=O)C(NC(=O)C(Cc1cnc[nH]1)NC(=O)C(CC(C)C)NC(=O)C(CCC(N)=O)NC(=O)C(CC(C)C)NC(=O)C1CCCN1C(=O)C(CO)NC(=O)C(CO)NC(=O)C(CC(N)=O)NC(=O)C(NC(=O)C(CC(C)C)NC(=O)C(CC(C)C)NC(=O)C(C)NC(=O)C(CCC(N)=O)NC(=O)CNC(=O)C(CCCNC(=N)N)NC(=O)C(CC(C)C)NC(=O)C(NC(=O)C(C)NC(=O)C(CCC(=O)O)NC(=O)C(CO)NC(=O)CCCCC1SCC2NC(=O)NC21)C(C)C)C(C)C)C(C)C)C(C)C)C(=O)NC(CO)C(=O)NC(CC(C)O)C(=O)NC(C(=O)NC(C(=O)NC(CC(C)C)C(=O)NC(CC(C)C)C(=O)NC(CCCNC(=N)N)C(=O)NC(C)C(=O)NC(CC(C)C)C(=O)O)C(C)O)C(C)O (stereo not drawn) [T3] (X1-SEAVLRGQALLVNSSPLQLHVDAVSGL[Abu]S[X2]TTLLRAL-OH; configuration not given here) | lower than that in the control group | higher than that in the control group | 9.29 ± 0.13 | 8.75 ± 0.36 | 6.77 ± 0.18 | no significant increase | lower than those of the control group | lower than those of the control group | 40.58 ± 3.67 | longer than those of the physiological saline group and the solvent group | lower than that in the control group | higher than that in the control group | blood-brain barrier penetration [1]: could enter the cerebrospinal fluid across the blood-brain barrier; RBC generation (erythrocyte counts) (red blood cells; 250 ug/kg i.p. once a day, 3th day): 8.16 ± 0.28 M/μL; RBC generation (erythrocyte counts) (red blood cells; 250 ug/kg i.p. once a day, 7th day): 9.56 ± 0.54 M/μL; RBC generation (erythrocyte counts) (red blood cells; 250 ug/kg i.p. once a day, 13th day): 6.52 ± 0.12 M/μL; Neurobehavioral scores ([3]; column head: Ctrl + T3 group): 6.3 ± 0.7; Cerebral infarction volumes ([3]; column head: ctrl + T3 group): 40.54 ± 5.78 mm^3; Cerebral infarction volumes ([3]; column head:): 37.72 ± 9.20 mm^3; Neurobehavioral scores ([3]; column head:): 5.7 ± 0.3; loss of neurons in the hippocampus ([4]; animals with nerve damage (epilepsy model), summary statement): reduce the loss of neurons in the hippocampus
2 | Erythropoietin [EPO] | lower than that in the control group | higher than that in the control group | 9.14 ± 0.56 | 12.79 ± 0.24 | 11.15 ± 0.23 | significantly higher than that of other groups | lower than those of the control group | lower than those of the control group | 41.16 ± 3.52 | longer than those of the physiological saline group and the solvent group | lower than that in the control group | higher than that in the control group | –
